Series [1] is described as follows: clinical. The note with it: human, in vivo, 100 mg.
For series [2] the following is noted: postoperative monitoring during the test period.
Series [3] can be described thus: clinical. The note with it: female, human, in vivo, 100 mg.
The conditions of series [4]: 10 mg morphine, end of the 24 hour delivery, mean; cited from earlier work.
The nature of series [5]: Example 2: transdermal morphine after elective coronary surgery, amount absorbed from the drug cell. The note with it: after 48 hours, of the initial 100 mg.

In the case of `CN1CC[C@]23c4c5ccc(O)c4O[C@H]2[C@@H](O)C=C[C@H]3[C@H]1C5` [Morphine acetate], in series [1], the concentration at 0 h was found to be 0 nM, the concentration at 1 h came out at 53 nM, the concentration at 2 h is 112 nM and the concentration at 3 h is 115 nM. In series [1], this molecule yielded a concentration at 3.5 h of 154 nM and a concentration at 4 h of 162 nM.
In the case of `CN1CC[C@]23c4c5ccc(O)c4O[C@H]2[C@@H](O)C=C[C@H]3[C@H]1C5` [Morphine], the oxygen saturation result in series [2] is recorded as “remained normal”. In addition, in series [3], the concentration at 1 h was 8 ± 3.5 nM, the concentration at 32 h was 9.8 ± 3.8 nM and the concentration at 48 h is 8.5 ± 1.7 nM. For the same molecule, in series [4], the “amount of drug in the reservoir was reduced” value was 75 per cent. Moreover, the “morphine dose in the drug cell found to be absorbed” value in series [5] worked out at 32 ± 6 mg.

The record behind these values is EP0900076B1, “TRANSDERMAL DEVICE” (priority 1996, dated 1997).
